The compounds below were run against T1, purified catalytic domain of recombinant human TACE (rhTACEc) (Homo sapiens, UniProt P78536, N452Q/S266A) (assay: TACE kinetic assay: cleavage of internally quenched peptide substrate SPDL-3, fluorescence). Conditions: TACE inhibitory activity, class symbols; read-out: Ki.
T1 construct: Residue 215 to 477 with two mutation (S266A and N452Q) and a 6×His tail; 6xHis (C); made in house; host or cells: baculovirus/Hi5 insect cells
Type: biochemical
Protocol: TACE activity is determined by a kinetic assay measuring the rate of increase in fluorescent intensity generated by TACE catalyzed cleavage of an internally quenched peptide substrate (SPDL-3). […] It is purified from the baculovirus/Hi5 cells expression system using affinity chromatography. […] MCA is (7-Methoxycoumarin-4-yl)acetyl. Dpa is N-3-(2,4-Dinitrophenyl)-L-2,3-diaminopropionyl.
A 50 μl assay mixture contains 20 mM HEPES, pH 7.3, 5 mM CaCl2, 100 μM ZnCl2, 2% DMSO, 0.04% Methylcellulose, 30 μM SPDL-3, 70 pM rhTACEc and a test compound. RhTACEc is pre-incubated with the testing compound for 90 min. at 25° C. Reaction is started by addition of the substrate. […] Rate of enzymatic reaction is shown as Units per second. Effect of a test compound is shown as % of TACE activity in the absence of the compound.

T1 sequence (P78536 215-477 S266A/N452Q): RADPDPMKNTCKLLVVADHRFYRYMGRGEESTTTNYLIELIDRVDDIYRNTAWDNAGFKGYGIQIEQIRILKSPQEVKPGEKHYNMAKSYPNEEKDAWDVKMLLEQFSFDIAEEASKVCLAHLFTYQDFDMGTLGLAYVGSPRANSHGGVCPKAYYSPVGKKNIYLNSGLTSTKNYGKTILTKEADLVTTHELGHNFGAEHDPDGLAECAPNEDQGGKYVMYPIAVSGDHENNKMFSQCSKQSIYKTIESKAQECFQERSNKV

Compared with `C[C@@H](NC(=O)[C@H](O)[C@@H](O)C(=O)N1CC=C[C@H]1c1cccc(Cl)c1)c1ccc(-n2cccn2)cc1` [Compound 2263], `C[C@@H](NC(=O)[C@H](O)[C@@H](O)C(=O)N1CC=C[C@@H]1c1cccc(Cl)c1)c1ccc(-n2cccn2)cc1` [Compound 2264] is lower in Ki: 0.1 to 1 µM for the first, less than 0.02 µM for the second.

Compared with `CO[C@@H](C(=O)NCc1ccc(-c2ccc(F)cc2OCCC2CCCCC2)cc1)[C@@H](O)C(=O)N1Cc2cccnc2C1` [Compound 2476], `CCOc1cc(F)ccc1-c1ccc(CNC(=O)[C@H](O)[C@@H](O)C(=O)N2Cc3cccnc3C2)cc1` [Compound 2036] is lower in Ki: 0.02 to 0.1 µM for the first, less than 0.02 µM for the second. The second binds more tightly here.

`C[C@H](c1ccc(-n2cccn2)cc1)N1CCO[C@H]([C@@H](O)C(=O)N2CCCC2c2ccccc2)C1=O` (some centres unmarked) [Compound 2478] and `C[C@@H](NC(=O)[C@](C)(O)[C@@H](O)C(=O)N1CCCCC1c1ccccc1)c1ccc(-n2cccn2)cc1` (some centres unmarked) [Compound 2411] cannot be ordered by Ki: greater than 1 µM for the first, greater than 1 µM for the second.

Compared with `O=C(NCc1ccc(-c2ccccc2OC(F)(F)F)c[n+]1[O-])[C@H](O)[C@@H](O)C(=O)N1Cc2ccccc2C1` [Compound 2348], `O=C(NCc1ccc(-c2ccccc2OC(F)(F)F)c[n+]1[O-])[C@H](O)[C@@H](O)C(=O)N1CCCC1` [Compound 2347] is higher in Ki: 0.1 to 1 µM for the first, greater than 1 µM for the second. The first binds more tightly here.

`C[C@@H](NC(=O)[C@H](O)[C@@H](O)C(=O)N1Cc2cccnc2C1)c1cccc(OCc2ccccc2)c1` [Compound 2308] and `COc1cccc([C@@H](C)NC(=O)[C@H](O)[C@@H](O)C(=O)N2Cc3cccnc3C2)c1` [Compound 2306] cannot be ordered by Ki: greater than 1 µM for the first, greater than 1 µM for the second.

`CCNc1nnc([C@H]2c3ccccc3CN2C(=O)[C@H](O)[C@@H](O)C(=O)N[C@H](C)c2ccc(-n3cccn3)cc2)o1` (stereo in doubt) [Compound 2527] and `C[C@@H](NC(=O)[C@H](O)[C@@H](O)C(=O)N1CCc2ccccc2C1)c1ccc(-n2cccn2)cc1` [Compound 2438] cannot be ordered by Ki: less than 0.02 µM for the first, less than 0.02 µM for the second.

Compared with `O=C(NCc1ccc(-c2ccc(F)cc2OCC(F)(F)F)cc1)[C@H](O)[C@@H](O)C(=O)N1CCCC1` [Compound 2337], `O=C(NCc1ccc(-c2ccccc2OC(F)(F)F)cn1)[C@H](O)[C@@H](O)C(=O)N1CCCC1` [Compound 2350] is lower in Ki: 0.02 to 0.1 µM for the first, less than 0.02 µM for the second.

First: O=C(NCC1CCN(c2ccccc2OCCC2CCCCC2)CC1)[C@H](O)[C@@H](O)C(=O)N1CCCC1 [Compound 2158]
Second: O=C(NCC1CCN(c2cccc(F)c2OC(F)(F)F)CC1)[C@H](O)[C@@H](O)C(=O)N1CCCC1 [Compound 2140]
The Ki of the first is lower: 0.02 to 0.1 µM for the first, greater than 1 µM for the second. The first binds more tightly here.

Compared with `C[C@@H]1CCC[C@H](C)N1C(=O)[C@H](O)[C@@H](O)C(=O)N[C@H](C)c1ccc(-n2cccn2)cc1` [Compound 2409], `C[C@@H](NC(=O)[C@H](O)[C@@H](O)C(=O)N1CCOCC1)c1ccc(-n2cccn2)cc1` [Compound 2422] is lower in Ki: 0.1 to 1 µM for the first, 0.02 to 0.1 µM for the second.

`COc1cc2c(cc1OC)C(c1ccccc1)N(C(=O)[C@H](O)[C@@H](O)C(=O)N[C@H](C)c1ccc(-n3cccn3)cc1)CC2` (some centres unmarked) [Compound 2442] and `CC(C)Nc1nc([C@H]2c3ccc(Cl)cc3CCN2C(=O)[C@H](O)[C@@H](O)C(=O)N[C@H](C)c2ccc(-n3cccn3)cc2)cs1` [Compound 2589] cannot be ordered by Ki: less than 0.02 µM for the first, less than 0.02 µM for the second.

Compared with `C[C@@H](NC(=O)[C@H](O)[C@@H](O)C(=O)N1CC(C)(C)CC1(C)C)c1ccc(-n2cccn2)cc1` [Compound 2254], `C[C@@H](NC(=O)[C@H](O)[C@@H](O)C(=O)N1CC(C)(C)C[C@]1(C)c1cccc(Cl)c1)c1ccc(-n2cccn2)cc1` [Compound 2240] is lower in Ki: 0.1 to 1 µM for the first, 0.02 to 0.1 µM for the second. The second binds more tightly here.

First: C[C@@H](NC(=O)[C@H](O)[C@@H](O)C(=O)N1CC[C@H](O)[C@H]1c1cccc(Cl)c1)c1ccc(-n2cccn2)cc1 [Compound 2266]
Second: C[C@@H](NC(=O)[C@H](O)[C@@H](O)C(=O)N1CC(C)(C)CC1c1cccc(Cl)c1)c1ccc(-n2cccn2)cc1 (some centres unmarked) [Compound 2237]
The Ki of the first is lower: less than 0.02 µM for the first, 0.1 to 1 µM for the second. The first binds more tightly here.

Compared with `O=C(NCc1ccc(-c2ccccc2)cc1)[C@H](O)[C@@H](O)C(=O)N1Cc2cccnc2C1` [Compound 2037], `C[C@@H](NC(=O)[C@H](O)[C@@H](O)C(=O)N1Cc2cccnc2C1)c1ccc(-n2cccn2)c(O)c1` [Compound 2305] is lower in Ki: 0.02 to 0.1 µM for the first, less than 0.02 µM for the second. The second binds more tightly here.

`CNc1nc([C@H]2CCCN2C(=O)[C@H](O)[C@@H](O)C(=O)N[C@H](C)c2ccc(-n3cccn3)cc2)c(C#N)s1` [Compound 2269] and `CNc1nc([C@H]2CCCN2C(=O)[C@H](O)[C@@H](O)C(=O)N[C@H](C)c2ccc(-n3cccn3)cc2)c(C)s1` [Compound 2268] cannot be ordered by Ki: less than 0.02 µM for the first, less than 0.02 µM for the second.

First: Cc1nc2c(s1)CN(C(=O)[C@H](O)[C@@](C)(O)C(=O)N[C@H](C)c1ccc(-n3cccn3)cc1)C2 [Compound 2057]
Second: C[C@@H](NC(=O)[C@](C)(O)[C@@H](O)C(=O)N1Cc2cncnc2C1(C)C)c1ccc(-n2cccn2)cc1 [Compound 2047]
The Ki of the first is lower: less than 0.02 µM for the first, 0.1 to 1 µM for the second. The first binds more tightly here.

`N#Cc1cc(F)ccc1N1CCC(CNC(=O)[C@H](N)[C@@H](O)C(=O)N2CCCC2)CC1` [Compound 2460] and `N#Cc1cc(F)ccc1N1CCC(CNC(=O)[C@H](O)[C@@H](O)C(=O)N2C3CCC2CC3)CC1` [Compound 2094] cannot be ordered by Ki: greater than 1 µM for the first, greater than 1 µM for the second.

`C[C@](O)(C(=O)NCC1CCN(c2ccccc2OC(F)(F)F)CC1)[C@@H](O)C(=O)N1Cc2cccnc2C1` [Compound 2038] and `C[C@](O)(C(=O)NCC1CCN(c2ccc(F)cc2C#N)CC1)[C@@H](O)C(=O)N1Cc2cccnc2C1` [Compound 2034] fall in the same range of Ki: 0.02 to 0.1 µM for the first, 0.02 to 0.1 µM for the second.

First: N#Cc1cc(F)ccc1N1[C@@H]2CC[C@H]1CC(CNC(=O)[C@H](O)[C@@H](O)C(=O)N1Cc3ccccc3C1)C2 (some centres unmarked) [Compound 2149]
Second: C[C@@H](NC(=O)[C@H](O)[C@@H](O)C(=O)N1CCc2ccc(F)cc2C1)c1ccc(-n2cccn2)cc1 [Compound 2439]
The Ki of the first is higher: 0.1 to 1 µM for the first, less than 0.02 µM for the second.

`C[C@@H](NC(=O)[C@H](O)[C@@H](O)C(=O)N1CCCCC1c1ccc(Cl)cc1)c1ccc(-n2cccn2)cc1` (some centres unmarked) [Compound 2418] and `C[C@@H](NC(=O)[C@H](O)[C@@H](O)C(=O)N1CCCCC1c1csc(N)n1)c1ccc(-n2cccn2)cc1` (some centres unmarked) [Compound 2417] fall in the same range of Ki: 0.02 to 0.1 µM for the first, 0.02 to 0.1 µM for the second.

First: C[C@@H](NC(=O)[C@H](O)[C@@H](O)C(=O)N1CCN2CCC[C@H]2C1)c1ccc(-n2cccn2)cc1 [Compound 2420]
Second: C[C@@H](NC(=O)[C@H](O)[C@@H](O)C(=O)N1CCc2c(cnn2C)C1)c1ccc(-n2cccn2)cc1 [Compound 2074]
The Ki of the first is higher: 0.1 to 1 µM for the first, 0.02 to 0.1 µM for the second. The second binds more tightly here.

`CC#CCOc1cc([C@@H](C)NC(=O)[C@H](O)[C@@H](O)C(=O)N2CCC[C@@H]2c2cccc(Cl)c2)ccc1-n1cccn1` [Compound 2571] and `CC#CCOc1cc([C@@H](C)NC(=O)[C@H](O)[C@@H](O)C(=O)N2Cc3cccnc3C2)ccc1-n1cccn1` [Compound 2359] cannot be ordered by Ki: less than 0.02 µM for the first, less than 0.02 µM for the second.

First: CNc1ncc2c(n1)CN(C(=O)[C@H](O)[C@@H](O)C(=O)N[C@H](C)c1ccc(-n3cccn3)cc1)C2C (some centres unmarked) [Compound 2054]
Second: CC1c2cnc(N)nc2CN1C(=O)[C@H](O)[C@@H](O)C(=O)N[C@H](C)c1ccc(-n2cccn2)cc1 (some centres unmarked) [Compound 2051]
The Ki of the first is lower: less than 0.02 µM for the first, 0.02 to 0.1 µM for the second. The first binds more tightly here.

First: C[C@@H](NC(=O)[C@H](O)[C@@H](O)C(=O)N1CCC[C@@H]1c1ncccn1)c1ccc(-n2cccn2)cc1 [Compound 2242]
Second: C[C@@H](NC(=O)[C@H](O)[C@@H](O)C(=O)N1C2CCC1c1cncnc1C2)c1ccc(-n2cccn2)cc1 (some centres unmarked) [Compound 2093]
The Ki of the first is lower: less than 0.02 µM for the first, greater than 1 µM for the second.

First: CCNc1nc([C@H]2C[C@@H](C)CN2C(=O)[C@H](O)[C@@H](O)C(=O)N[C@H](C)c2ccc(-n3cccn3)cc2)cs1 [Compound 2271]
Second: C[C@@H](NC(=O)[C@H](O)[C@@H](O)C(=O)N1CCC[C@@H]1c1csc(N2CCCCC2)n1)c1ccc(-n2cccn2)cc1 [Compound 2258]
The Ki of the first is lower: less than 0.02 µM for the first, 0.02 to 0.1 µM for the second. The first binds more tightly here.

First: CC(c1cccc(Cl)c1)N(C)C(=O)[C@H](O)[C@@H](O)C(=O)N[C@H](C)c1ccc(-n2cccn2)cc1 (some centres unmarked) [Compound 2480]
Second: C[C@@H](NC(=O)[C@](C)(O)[C@@H](O)C(=O)N1CCCC1(C)c1cccc(Cl)c1)c1ccc(-n2cccn2)cc1 (some centres unmarked) [Compound 2236]
The Ki of the first is lower: 0.02 to 0.1 µM for the first, greater than 1 µM for the second. The first binds more tightly here.

For `CNc1ncc2c(n1)CN(C(=O)[C@H](O)[C@@H](O)C(=O)N[C@H](C)c1ccc(-n3cccn3)cc1)C2` [Compound 2052], the Ki was less than 0.02 µM.

Same assay, conditions: TACE, representative compounds, numeric values; read-out: Ki

Point of comparison: `CNc1nc([C@H]2CCCN2C(=O)[C@H](O)[C@@H](O)C(=O)N[C@H](C)c2ccc(-n3cccn3)cc2)c(C#N)s1` [drawing 1316], Ki 0.002 µM. Against it:
- O=C(NCc1ccn(Cc2ccccc2Cl)n1)[C@H](O)[C@@H](O)C(=O)N1CCC[C@@H]1c1cccc(Cl)c1 — within 1.5-fold, 0.0027 µM
- CNc1nc([C@H]2CC(F)(F)CN2C(=O)[C@H](O)[C@@H](O)C(=O)N[C@H](C)c2ccc(-n3cccn3)cc2)cs1 [drawing 1327] — 1.9-fold higher, 0.0039 µM
- Cc1cccc(C)c1Cc1csc(CNC(=O)[C@H](O)[C@@H](O)C(=O)N2CCCC2c2cccc(N3CCN(C)CC3)c2)n1 (some centres unmarked) — within 1.5-fold, 0.0025 µM
- C[C@@H](NC(=O)[C@H](O)[C@@H](O)C(=O)N1CC=CC1c1cccc(Cl)c1)c1ccc(-n2cccn2)cc1 (some centres unmarked) — 3.3-fold lower, 0.0006 µM
- C[C@@H](NC(=O)[C@H](O)[C@@H](O)C(=O)N1CCC[C@@H]1c1ccn(-c2ccc(F)cc2)n1)c1ccc(-n2cccn2)cc1 [drawing 1317] — the same, 0.002 µM
- C[C@@H](NC(=O)[C@H](O)[C@@H](O)C(=O)N1Cc2ccccc2C1)c1ccc(-c2ccsc2)cc1 — 1.9-fold higher, 0.0038 µM
- CC(C)Nc1nc([C@H]2c3ccccc3CN2C(=O)[C@H](O)[C@@H](O)C(=O)N[C@H](C)c2ccc(-n3cccn3)cc2)cs1 [drawing 1298] — 3.7-fold lower, 0.00054 µM
